The values below come from PMC5000470, “Optimization of extraction parameters of PTP1β (protein tyrosine phosphatase 1β), inhibitory polyphenols, and anthocyanins from Zea mays L. using response surface methodology (RSM)” (BMC Complementary and Alternative Medicine, 2016).

The structures appear in SMILES notation. Like-named read-outs stand apart in the source and are kept apart here.

Assay [1] concerns the target T1, PTP1β (human, recombinant) (Homo sapiens, UniProt P18031).
T1 construct: purchased BIOMOL International LP (Plymouth Meeting, PA)
T1 sequence (P18031 1-435): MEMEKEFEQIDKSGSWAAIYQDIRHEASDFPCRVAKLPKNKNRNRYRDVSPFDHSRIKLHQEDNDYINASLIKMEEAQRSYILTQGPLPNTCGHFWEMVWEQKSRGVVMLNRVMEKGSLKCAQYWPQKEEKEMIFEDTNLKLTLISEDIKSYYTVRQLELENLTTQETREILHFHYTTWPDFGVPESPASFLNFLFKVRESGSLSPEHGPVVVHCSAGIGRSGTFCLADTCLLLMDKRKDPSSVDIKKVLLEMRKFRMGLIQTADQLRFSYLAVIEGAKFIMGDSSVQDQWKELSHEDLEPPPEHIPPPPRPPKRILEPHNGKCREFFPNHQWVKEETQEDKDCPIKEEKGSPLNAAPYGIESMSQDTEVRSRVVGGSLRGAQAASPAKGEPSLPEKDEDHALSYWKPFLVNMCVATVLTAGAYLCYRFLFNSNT
Briefly: PTP1β inhibitory activity assay (pNPP substrate). Conditions: for inhibition at 10 µg/mL: concentration 10 μg/mL; for inhibition at 50 µg/mL: concentration 50 μg/mL; for inhibition at 25 µg/mL: concentration 25 μg/mL. The assay is classed as biochemical. The procedure: A PTP1β (human, recombinant) drug discovery kit was purchased from BIOMOL® International LP (Plymouth meeting, PA). Enzymatic activity was measured using pNPP, as described previously. To each of the 96-wells in a microtiter plate (final volume: 100 μL) was added 2 mM pNPP and PTP1β (0.05-0.1 ng/well) in a buffer containing 50 mM citrate (pH 6.0), 0.1 M sodium chloride, 1 mM EDTA, and 1 mM dithiothreitol, with or without test compounds. Following incubation at 37 °C for 30 min, the reaction was terminated with 10 M sodium hydroxide.
All calculations and analyses were performed using statistical analysis system (SAS, SAS Institude Inc., NC, USA, version 9.1) software and Sigma plot (Systat Software Inc., USA, version 11). Inhibition rates were calculated as percentages (%) with respect to the control value and IC50 value was estimated from the least-squares regression line of the logarithmic concentration plotted against inhibitory activity.

Assay [2] deals with rat lenses aldose reductase. Also noted: method as in PMID 23586057. The conditions noted are these: cited from earlier work.
The subject of assay [3] is human recombinant aldose reductase. Also noted: method as in PMID 23586057. Conditions: cited from earlier work.
The target of assay [4] is T1, PTP1β (human, recombinant). Briefly: Kinetics of PTP1β inhibition (Lineweaver-Burk plots, pNPP substrate). The assay is classed as biochemical. Also noted: dose or concentration left out as unconfirmed. Here is the method:
[…] The initial rate was determined on the basis of the rate of increase in absorbance at 405 nm. The Michaelis-Menten constant (Km) and maximal velocity (Vmax) of PTP1β were determined by Lineweaver-Burk Plot analysis for competitive inhibition, and the intercept on the vertical axis for noncompetitive inhibition.
A kinetic analysis of PTP1β inhibition by compounds 7 and 11 using Lineweaver-Burk plots of 1/velocity and 1/concentration of substrate is shown in Fig. 2. […] However, compound 7 yielded a noncompetitive inhibition pattern against PTP1β. […] These compounds may be potential lead compounds for further development as a functional food source for the prevention of diabetes.

Where [5] appears, read: Table 2, isolated compounds, mean of 3 duplication analyses, read-out: IC50 (μg/ml) (converted).
The mark [6] stands for this setting: Table 2, concentration 100 μg/mL, read-out: Inhibition (%).
[7] abbreviates: isolated compounds, read-out: IC50.

As a reminder, the inhibition is the change of the read-out against control, counted positive when it falls. Take `OC[C@H]1O[C@@H](Oc2cc3c(O)cc(O)cc3[o+]c2-c2ccc(O)cc2)[C@H](O)[C@@H](O)[C@@H]1O` [compound 9, pelargonidin-3-glucoside]: the IC50 in assay [1] (setting [5]) is 211 µM. Moreover, in assay [1] (Table 2), the inhibition at 10 µg/mL was determined as 1.09% and the inhibition at 50 µg/mL stood at 13.3%. Besides, in assay [1] (setting [6]), the inhibition at 100 µg/mL is 55%. Also, the IC50 in assay [1] (setting [7]) worked out at 211 µM.

`OC[C@H]1O[C@@H](Oc2cc3c(O)cc(O)cc3[o+]c2-c2ccc(O)c(O)c2)[C@H](O)[C@@H](O)[C@@H]1O` [compound 8, cyanidin-3-glucoside]: the inhibition at 100 µg/mL in assay [1] (setting [6]) was less than 50%.

For the compound `COc1cc(-c2[o+]c3cc(O)cc(O)c3cc2O[C@@H]2O[C@H](CO)[C@@H](O)[C@H](O)[C@H]2O)ccc1O` [compound 10, peonidin-3-glucoside], the inhibition at 100 µg/mL in assay [1] (setting [6]) was less than 50%.

Consider `O=C(O)/C=C/c1ccc(O)cc1` [compound 4, p-4-hydroxycinnamic acid], for which the inhibition at 100 µg/mL in assay [1] (setting [6]) was less than 50%.

As for `O=c1c(O[C@@H]2O[C@H](CO)[C@@H](O)[C@H](O)[C@H]2O)c(-c2ccc(O)c(O)c2)oc2cc(O)cc(O)c12` [compound 6, hirsutrin], in assay [2], the “inhibitory activity on rat lenses aldose reductase” value is on record as “significant inhibitory activities”. The inhibition at 100 µg/mL in assay [1] (setting [6]) was less than 50%. The “inhibitory activity on human recombinant aldose reductase” value in assay [3] is reported as “significant inhibitory activities”.

For the compound `O=C(O)c1ccc(O)c(O)c1` [compound 1, protocatechuic acid], in assay [1], the inhibition at 100 µg/mL was less than 50%.

Regarding `COc1cc(-c2oc3cc(O)cc(O)c3c(=O)c2O[C@@H]2O[C@H](CO)[C@@H](O)[C@H](O)[C@H]2O)ccc1O` [compound 7, 3′-methoxyhirsutrin], the “inhibitory activity on rat lenses aldose reductase” value in assay [2] was “significant inhibitory activities”. The “type of inhibition of PTP1β” value in assay [4] is recorded as “noncompetitive”. Moreover, in assay [1] (setting [5]), the IC50 was 64 µM. In addition, in assay [1] (Table 2), the inhibition at 10 µg/mL was 15%, the inhibition at 25 µg/mL amounted to 36.8% and the inhibition at 50 µg/mL is 85.9%. Moreover, the IC50 in assay [1] (setting [7]) stood at 64 µM. In addition, the “inhibitory activity on human recombinant aldose reductase” value in assay [3] was “significant inhibitory activities”.

Consider `O=C(O)c1c(O)cc(O)cc1O` [compound 3, 2,4,6-trihydroxy benzoic acid], for which the inhibition at 100 µg/mL in assay [1] (setting [6]) is less than 50%.

Take `O=C(O)CC(=O)OC[C@H]1O[C@@H](Oc2cc3c(O)cc(O)cc3[o+]c2-c2ccc(O)c(O)c2)[C@H](O)[C@@H](O)[C@@H]1O` [compound 11, cyanidin-3-(6”-malonylglucoside)]: in assay [2], the “inhibitory activity on rat lenses aldose reductase” value was “significant inhibitory activities”. Further, the “type of inhibition of PTP1β” value in assay [4] is “mixed”. The IC50 in assay [1] (setting [5]) was 54.1 µM. Further, in assay [1] (Table 2), the inhibition at 10 µg/mL stood at 18.5%, the inhibition at 25 µg/mL turned out to be 36.2% and the inhibition at 50 µg/mL is 91.7%. Besides, the IC50 in assay [1] (setting [7]) is 54.1 µM. The “inhibitory activity on human recombinant aldose reductase” value in assay [3] is listed as “significant inhibitory activities”.

With `COc1cc(/C=C/C(=O)O)ccc1O` [compound 5, ferulic acid], the IC50 in assay [1] (setting [5]) and in assay [1] (setting [7]) was 185 µM each time. The inhibition at 10 µg/mL in assay [1] (Table 2) is 28.3%. For the same compound, the inhibition at 50 µg/mL in assay [1] (Table 2) stood at 64.5%. Besides, the inhibition at 100 µg/mL in assay [1] (setting [6]) was determined as 96.1%.

For the compound `COc1cc(C(=O)O)ccc1O` [compound 2, vanillic acid], the inhibition at 100 µg/mL in assay [1] (setting [6]) is less than 50%.

For the compound `Cc1ccc(C(=O)Nc2ccc(S(=O)(=O)O)c3cc(S(=O)(=O)O)cc(S(=O)(=O)O)c23)cc1NC(=O)c1cccc(NC(=O)Nc2cccc(C(=O)Nc3cc(C(=O)Nc4ccc(S(=O)(=O)O)c5cc(S(=O)(=O)O)cc(S(=O)(=O)O)c45)ccc3C)c2)c1` [Suramin, suramin, reference compound], the inhibition at 3.21 µg/mL in assay [1] (Table 1, concentration 3.21 μg/mL) worked out at 10.7%. Besides, the inhibition at 6.49 µg/mL in assay [1] (Table 1, concentration 6.49 μg/mL) was found to be 40.6%. Moreover, the inhibition at 12.97 µg/mL in assay [1] (Table 1, concentration 12.97 μg/mL) worked out at 61.9%. In addition, the inhibition at 1 µg/mL in assay [1] (Table 2, concentration 1 μg/mL) was 10.7%. In addition, the inhibition at 2.5 µg/mL in assay [1] (Table 2, concentration 2.5 μg/mL) is 46.5%. For the same compound, in assay [1] (Table 2, concentration 5 μg/mL), the inhibition at 5 µg/mL worked out at 64.3%.
